Results on three compounds are retold here after US11731962B2, “LpxC inhibitor and methods of making” (priority 2020, dated 2023).

The structures appear in SMILES notation. ≈ marks a conversion by molar mass, not a printed value. Read-outs that look alike come from different tables or passages of the source.

What all share (assay type): cell-based
The test system of assay [1] is gram-negative and gram-positive bacterial strains. The assay is described as follows: Bacterial susceptibility testing, whole panel. The note with it: summary of Table 1. The procedure:
(§1) Minimal inhibitory concentrations (MIC) against a variety of gram-negative and gram-positive bacterial strains were determined by the broth microdilution method in accordance with the Clinical and Laboratory Standards Institute (CLSI) guidelines. In brief, organism suspensions were adjusted to a 0.5 McFarland standard to yield a final inoculum between 3×10^5 and 7×10^5 colony-forming units (CFU)/mL. Drug dilutions and inocula were made in sterile, cation adjusted Mueller-Hinton Broth (Beckton Dickinson). An inoculum volume of 100 μL was added to wells containing 100 μL of broth with 2-fold serial dilutions of drug. All inoculated microdilution trays were incubated in ambient air at 35° C. for 18-24 h. Following incubation, the lowest concentration of the drug that prevented visible growth (OD600 nm<0.05) was recorded as the MIC. Performance of the assay was monitored by the use of laboratory quality-control strains and levofloxacin, a compound with a defined MIC spectrum, in accordance with CLSI guidelines.

In assay [2] the test system is E. coli ATCC 25922. As to the kind of experiment: Bacterial susceptibility testing, broth microdilution MIC. The note with it: Escherichia coli, ATCC25922. The procedure:
as §1
A general note: In broth dilution the organism is exposed to a series of concentrations in liquid medium.

In assay [3] the test system is K. pneumoniae ATCC 13883. The description is as above. The note with it: Klebsiella pneumoniae, ATCC13883. The procedure:
as §1

Assay [4] concerns C. difficile ATCC 700057. The description is as above. The note with it: Clostridioides difficile, ATCC700057, 35° C., 18-24 h. The procedure:
as §1

Assay [5] concerns B. thuringiensis ATCC 35646. The assay is described as above. The note with it: Bacillus thuringiensis, ATCC35646, 35° C., 18-24 h. The procedure: as §1
For assay [6], the system named is S. epidermidis ATCC 35984. The assay is described as above. The note with it: Staphylococcus epidermidis, ATCC35984, 35° C., 18-24 h. The procedure: as §1
Assay [7] relates to E. faecalis ATCC 29212. The assay is described as above. Particulars: Enterococcus faecalis, ATCC29212, 35° C., 18-24 h. The procedure:
as §1

For assay [8], the system named is L. rhamnosus ATCC 53103. The assay is described as above. The note with it: Lacticaseibacillus rhamnosus, ATCC53103, 35° C., 18-24 h. The procedure: as §1
For assay [9], the system named is S. pneumoniae ATCC 49619. The description is as above. The note with it: Streptococcus pneumoniae, ATCC49619, 35° C., 18-24 h. The procedure: as §1
Assay [10] relates to P. acnes ATCC 6919. The description is as above. The note with it: Cutibacterium acnes, ATCC6919, 35° C., 18-24 h. The procedure:
as §1

Assay [11] concerns B. breve HM 412. Described as above. Particulars: Bifidobacterium breve, HM412, 35° C., 18-24 h. The procedure: as §1
The test system of assay [12] is C. sordellii ATCC 9714. Described as above. Particulars: Paraclostridium sordellii, ATCC9714, 35° C., 18-24 h. The procedure:
as §1

Assay [13] deals with N. cyriacigeorgica complex NBQAS 3295. The description is as above. The procedure: as §1
The test system of assay [14] is P. anaerobius DSM 20357. The description is as above. Particulars: Peptostreptococcus anaerobius, DSM20357, 35° C., 18-24 h. The procedure:
as §1

Assay [15] deals with S. aureus ATCC 29213. Described as above. The note with it: for MIC: Staphylococcus aureus, ATCC29213, S. aureus ATCC 29213, broth microdilution, 35° C., 18-24 h. The procedure:
as §1

For assay [16], the system named is C. jeikeium NCTC 11914. The assay is described as above. The note with it: Corynebacterium jeikeium, NCTC11914, 35° C., 18-24 h. The procedure: as §1
For assay [17], the system named is L. monocytogenes ATCC 7644. The description is as above. The note with it: Listeria monocytogenes, ATCC7644, 35° C., 18-24 h. The procedure:
as §1

Assay [18] deals with S. pyogenes ATCC 12384. The description is as above. Particulars: Streptococcus pyogenes, ATCC12384, 35° C., 18-24 h. The procedure:
as §1

Where [19] appears, read: E. coli ATCC 25922, broth microdilution, 35° C., 18-24 h, read-out: MIC.

With `N#CC1CN(C[C@@H](Cc2ncnc(O)c2O)c2ccc(C#Cc3ccc(CN4CCOCC4)cc3)cc2)C1` [Compound A, (S)-1-(3-(5,6-dihydroxypyrimidin-4-yl)-2-(4-((4-(morpholinomethyl)phenyl)ethynyl)phenyl)propyl)azetidine-3-carbonitrile], the “selectivity for gram-negative bacteria over gram-positive bacteria” value in assay [1] is “high selectivity”. The MIC was 0.5 µg/mL (≈ 0.981 µM) in [2] (setting [19]); less than 1 µg/mL in assay [2] (E. coli cell lines, strain not named, read-out: MIC values); 0.5 µg/mL (≈ 0.981 µM) in assay [3] (K. pneumoniae ATCC 13883, broth microdilution, 35° C., 18-24 h, read-out: MIC); less than 1 µg/mL in assay [3] (K. pneumoniae cell lines, strain not named, read-out: MIC values); more than 64 µg/mL in [4]; more than 64 µg/mL in assay [5]. Further, the MIC in assay [6], in [7], in [8], in assay [9], in [10] and in assay [11] was more than 64 µg/mL in each case. Moreover, the MIC in assay [12], in assay [13], in assay [14], in [15], in assay [16] and in assay [17] was more than 64 µg/mL throughout. Also, in assay [18], the MIC is more than 64 µg/mL. In addition, the “inhibition of gram-positive bacterial cell lines” value in [15] (gram-positive bacterial cell lines, such as S. aureus) is given as “does not inhibit”.
In the case of `C[C@H]1COc2c(N3CCN(C)CC3)c(F)cc3c(=O)c(C(=O)O)cn1c23` [Levofloxacin], the MIC in [2] (setting [19]) worked out at 0.03 µg/mL (≈ 0.083 µM); in assay [4] it was 4 µg/mL (≈ 11.1 µM); in assay [5], 0.125 µg/mL (≈ 0.346 µM); in assay [6], 0.125 µg/mL (≈ 0.346 µM); in [7], 1 µg/mL (≈ 2.77 µM); in assay [8], 1 µg/mL (≈ 2.77 µM). The MIC in [9] amounted to 1 µg/mL (≈ 2.77 µM); in assay [10], 0.5 µg/mL (≈ 1.38 µM); in assay [11], 4 µg/mL (≈ 11.1 µM); in assay [12], 1 µg/mL (≈ 2.77 µM); in assay [13], 8 µg/mL (≈ 22.1 µM); in [14], 0.5 µg/mL (≈ 1.38 µM). For the same compound, the MIC in assay [15] amounted to 0.25 µg/mL (≈ 0.692 µM); in assay [16] it was 1 µg/mL (≈ 2.77 µM); in [17], 1 µg/mL (≈ 2.77 µM); in assay [18] it was 0.5 µg/mL (≈ 1.38 µM).
Take `C[C@@H](O)[C@H]1C(=O)N2C(C(=O)O)=C(S[C@@H]3CN[C@H](C(=O)N(C)C)C3)[C@H](C)[C@H]12` [Meropenem]: in assay [1], the “activity against gram-positive bacteria” value is given as “do have activity against various strains of gram-positive bacteria”. The MIC in assay [2] (setting [19]) is 0.03 µg/mL (≈ 0.0782 µM); in assay [4] it was 1 µg/mL (≈ 2.61 µM); in [5] it was 0.06 µg/mL (≈ 0.156 µM); in [6], more than 1 µg/mL; in [7], more than 1 µg/mL; in assay [8], more than 1 µg/mL. Also, the MIC in [9] was 0.06 µg/mL (≈ 0.156 µM); in assay [10], 0.06 µg/mL (≈ 0.156 µM); in [11], more than 1 µg/mL; in [12], 0.015 µg/mL (≈ 0.0391 µM); in assay [13], more than 1 µg/mL; in assay [14] it was more than 1 µg/mL. For the same compound, the MIC is more than 1 µg/mL in assay [16] and 0.008 µg/mL (≈ 0.0209 µM) in assay [18].
